The kinase profiling compilation of Christmann-Franck et al. (2016)

Key:
Assay in all cases: KINOMEscan competition binding
MARK4 (human) = MARK4 (human) (UniProt Q96L34)
FGFR3 (human) = FGFR3 (human) (UniProt P22607)
[1] = tested on: ABL1 (human), P00519 [E255K]
CSNK1G2 (human) = CSNK1G2 (human) (UniProt P78368)
[2] = tested on: EGFR (human), P00533 [752-759 del]
[3] = tested on: EGFR (human), P00533 [T790M]
CAMK1G (human) = CAMK1G (human) (UniProt Q96NX5)
LCK (human) = LCK (human) (UniProt P06239)
TAOK2 (human) = TAOK2 (human) (UniProt Q9UL54)
MAP3K6 (human) = MAP3K6 (human) (UniProt O95382)
[4] = tested on: EIF2AK4 KD2 (human), Q9P2K8 [S808G]
RET (human) = RET (human) (UniProt P07949)
CDC42BPG (human) = CDC42BPG (human) (UniProt Q6DT37)
SGK3 (human) = SGK3 (human) (UniProt Q96BR1)
EPHA2 (human) = EPHA2 (human) (UniProt P29317)
CDC42BPB (human) = CDC42BPB (human) (UniProt Q9Y5S2)
CLK4 (human) = CLK4 (human) (UniProt Q9HAZ1)
RPS6KA5 KD1 (human) = RPS6KA5 KD1 (human) (UniProt O75582)
BMPR1B (human) = BMPR1B (human) (UniProt O00238)
[5] = tested on: FLT3 (human), P36888 [K663Q]
[6] = tested on: PIK3CA (human), P42336 [C420R]
BRSK2 (human) = BRSK2 (human) (UniProt Q8IWQ3)
ADCK3 (human) = ADCK3 (human) (UniProt Q8NI60)
MAP2K5 (human) = MAP2K5 (human) (UniProt Q13163)
CDK11B (human) = CDK11B (human) (UniProt P21127)
MARK2 (human) = MARK2 (human) (UniProt Q7KZI7)
PRPF4B (human) = PRPF4B (human) (UniProt Q13523)
RPS6KA4 KD2 (human) = RPS6KA4 KD2 (human) (UniProt O75676)
[7] = tested on: FLT3 (human), P36888 [N841I]
MAPKAPK5 (human) = MAPKAPK5 (human) (UniProt Q8IW41)
HUNK (human) = HUNK (human) (UniProt P57058)
MAPK9 (human) = MAPK9 (human) (UniProt P45984)
CDKL2 (human) = CDKL2 (human) (UniProt Q92772)
[8] = tested on: EGFR (human), P00533 [P753S; 747-752 del]
CDK18 (human) = CDK18 (human) (UniProt Q07002)
MAK (human) = MAK (human) (UniProt P20794)
PI4KB (human) = PI4KB (human) (UniProt Q9UBF8)
MAP4K3 (human) = MAP4K3 (human) (UniProt Q8IVH8)
MAP2K4 (human) = MAP2K4 (human) (UniProt P45985)
PKMYT1 (human) = PKMYT1 (human) (UniProt Q99640)
MAP4K1 (human) = MAP4K1 (human) (UniProt Q92918)
INSR (human) = INSR (human) (UniProt P06213)

Sequence of MAPK9 (human) (P45984 whole entry, looked up): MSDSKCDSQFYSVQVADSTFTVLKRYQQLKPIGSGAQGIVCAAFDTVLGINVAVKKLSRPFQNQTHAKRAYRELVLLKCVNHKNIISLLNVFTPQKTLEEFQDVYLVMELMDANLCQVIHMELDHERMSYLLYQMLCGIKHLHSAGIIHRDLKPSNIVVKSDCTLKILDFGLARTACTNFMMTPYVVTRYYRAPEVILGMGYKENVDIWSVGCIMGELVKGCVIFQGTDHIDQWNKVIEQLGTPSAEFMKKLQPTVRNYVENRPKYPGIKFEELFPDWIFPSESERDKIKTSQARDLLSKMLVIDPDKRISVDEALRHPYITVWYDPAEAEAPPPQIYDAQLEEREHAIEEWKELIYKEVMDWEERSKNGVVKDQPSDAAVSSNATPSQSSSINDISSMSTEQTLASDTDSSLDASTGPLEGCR
Sequence of RPS6KA5 KD1 (human) (O75582 whole entry, looked up): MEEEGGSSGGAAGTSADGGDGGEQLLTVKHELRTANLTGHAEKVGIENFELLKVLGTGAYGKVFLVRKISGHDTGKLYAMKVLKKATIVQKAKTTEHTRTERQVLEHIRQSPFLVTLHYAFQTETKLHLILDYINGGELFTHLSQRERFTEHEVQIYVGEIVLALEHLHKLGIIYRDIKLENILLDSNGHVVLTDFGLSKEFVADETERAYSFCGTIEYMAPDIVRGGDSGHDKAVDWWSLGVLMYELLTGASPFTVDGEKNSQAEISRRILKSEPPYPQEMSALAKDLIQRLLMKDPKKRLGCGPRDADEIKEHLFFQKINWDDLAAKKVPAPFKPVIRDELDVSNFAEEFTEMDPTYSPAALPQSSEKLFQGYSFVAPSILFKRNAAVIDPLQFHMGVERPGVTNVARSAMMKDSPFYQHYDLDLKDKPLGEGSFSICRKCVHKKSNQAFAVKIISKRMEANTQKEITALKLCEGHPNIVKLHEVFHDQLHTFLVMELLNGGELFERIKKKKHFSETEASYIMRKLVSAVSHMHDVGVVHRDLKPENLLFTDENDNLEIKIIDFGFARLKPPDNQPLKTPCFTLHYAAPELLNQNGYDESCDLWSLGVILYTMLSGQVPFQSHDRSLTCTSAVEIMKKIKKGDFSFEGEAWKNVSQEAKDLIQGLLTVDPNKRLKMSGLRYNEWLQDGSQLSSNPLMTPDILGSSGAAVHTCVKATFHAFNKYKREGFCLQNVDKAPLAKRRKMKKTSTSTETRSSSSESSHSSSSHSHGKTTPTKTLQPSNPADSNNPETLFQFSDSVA
Sequence of EPHA2 (human) (P29317 whole entry, looked up): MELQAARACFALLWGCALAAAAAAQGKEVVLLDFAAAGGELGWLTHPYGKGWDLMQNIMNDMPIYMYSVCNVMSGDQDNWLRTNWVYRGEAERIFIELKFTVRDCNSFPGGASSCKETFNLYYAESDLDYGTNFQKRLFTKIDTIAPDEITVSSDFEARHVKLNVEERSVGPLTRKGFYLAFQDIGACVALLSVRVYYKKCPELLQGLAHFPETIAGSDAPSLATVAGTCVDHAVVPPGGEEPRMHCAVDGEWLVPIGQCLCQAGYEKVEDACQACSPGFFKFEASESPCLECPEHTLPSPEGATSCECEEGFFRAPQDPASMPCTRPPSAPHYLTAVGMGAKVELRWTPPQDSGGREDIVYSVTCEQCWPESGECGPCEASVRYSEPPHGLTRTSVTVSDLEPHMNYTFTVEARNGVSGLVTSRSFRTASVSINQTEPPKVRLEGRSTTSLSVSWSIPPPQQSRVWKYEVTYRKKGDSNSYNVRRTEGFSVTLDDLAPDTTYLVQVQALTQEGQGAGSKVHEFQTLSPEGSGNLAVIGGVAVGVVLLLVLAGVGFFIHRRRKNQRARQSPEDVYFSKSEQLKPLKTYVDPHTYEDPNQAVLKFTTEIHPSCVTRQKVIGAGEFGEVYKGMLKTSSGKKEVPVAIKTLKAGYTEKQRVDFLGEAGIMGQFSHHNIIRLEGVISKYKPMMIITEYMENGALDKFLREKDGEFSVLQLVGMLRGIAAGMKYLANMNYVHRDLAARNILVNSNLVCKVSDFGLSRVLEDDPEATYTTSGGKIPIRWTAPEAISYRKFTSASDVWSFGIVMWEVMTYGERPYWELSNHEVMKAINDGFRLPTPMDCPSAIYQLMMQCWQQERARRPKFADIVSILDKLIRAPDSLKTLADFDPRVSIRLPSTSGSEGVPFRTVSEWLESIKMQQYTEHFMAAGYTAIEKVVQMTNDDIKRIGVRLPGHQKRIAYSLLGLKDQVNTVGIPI
Sequence of CDKL2 (human) (Q92772 whole entry, looked up): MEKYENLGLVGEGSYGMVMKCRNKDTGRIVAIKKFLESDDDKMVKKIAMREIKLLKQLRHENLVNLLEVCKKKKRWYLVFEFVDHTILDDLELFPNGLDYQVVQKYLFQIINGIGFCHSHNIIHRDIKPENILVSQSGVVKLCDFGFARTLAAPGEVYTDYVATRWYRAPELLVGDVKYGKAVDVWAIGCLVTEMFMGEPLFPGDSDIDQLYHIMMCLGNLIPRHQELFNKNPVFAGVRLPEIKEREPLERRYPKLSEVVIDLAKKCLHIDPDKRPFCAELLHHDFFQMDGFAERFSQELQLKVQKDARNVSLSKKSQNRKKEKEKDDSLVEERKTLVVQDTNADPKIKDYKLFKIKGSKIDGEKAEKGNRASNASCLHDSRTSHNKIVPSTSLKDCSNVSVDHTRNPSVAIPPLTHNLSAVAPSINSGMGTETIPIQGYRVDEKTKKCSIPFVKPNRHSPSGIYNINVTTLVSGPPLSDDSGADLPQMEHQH
Sequence of MAP4K1 (human) (Q92918 whole entry, looked up): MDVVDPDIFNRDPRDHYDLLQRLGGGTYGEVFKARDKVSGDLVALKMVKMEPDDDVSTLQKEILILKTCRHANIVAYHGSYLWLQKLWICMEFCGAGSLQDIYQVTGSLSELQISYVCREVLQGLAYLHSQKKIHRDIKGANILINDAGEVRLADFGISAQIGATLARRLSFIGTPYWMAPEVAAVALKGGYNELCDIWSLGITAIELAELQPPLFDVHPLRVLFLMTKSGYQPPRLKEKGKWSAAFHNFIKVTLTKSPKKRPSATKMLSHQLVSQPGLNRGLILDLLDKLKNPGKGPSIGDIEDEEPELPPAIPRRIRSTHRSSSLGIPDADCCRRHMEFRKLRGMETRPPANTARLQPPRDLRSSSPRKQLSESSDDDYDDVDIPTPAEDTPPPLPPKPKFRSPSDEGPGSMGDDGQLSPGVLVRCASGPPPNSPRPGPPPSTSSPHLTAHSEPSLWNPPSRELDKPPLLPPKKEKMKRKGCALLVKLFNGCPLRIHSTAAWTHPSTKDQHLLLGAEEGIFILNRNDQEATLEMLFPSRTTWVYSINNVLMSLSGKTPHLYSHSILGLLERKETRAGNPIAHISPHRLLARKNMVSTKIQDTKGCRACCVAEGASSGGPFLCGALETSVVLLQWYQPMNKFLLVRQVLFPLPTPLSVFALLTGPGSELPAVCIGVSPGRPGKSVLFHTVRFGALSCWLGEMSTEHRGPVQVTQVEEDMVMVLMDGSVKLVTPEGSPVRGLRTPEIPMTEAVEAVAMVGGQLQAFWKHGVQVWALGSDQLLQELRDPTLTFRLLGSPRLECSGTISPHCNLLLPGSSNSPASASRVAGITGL
Sequence of PI4KB (human) (Q9UBF8 whole entry, looked up): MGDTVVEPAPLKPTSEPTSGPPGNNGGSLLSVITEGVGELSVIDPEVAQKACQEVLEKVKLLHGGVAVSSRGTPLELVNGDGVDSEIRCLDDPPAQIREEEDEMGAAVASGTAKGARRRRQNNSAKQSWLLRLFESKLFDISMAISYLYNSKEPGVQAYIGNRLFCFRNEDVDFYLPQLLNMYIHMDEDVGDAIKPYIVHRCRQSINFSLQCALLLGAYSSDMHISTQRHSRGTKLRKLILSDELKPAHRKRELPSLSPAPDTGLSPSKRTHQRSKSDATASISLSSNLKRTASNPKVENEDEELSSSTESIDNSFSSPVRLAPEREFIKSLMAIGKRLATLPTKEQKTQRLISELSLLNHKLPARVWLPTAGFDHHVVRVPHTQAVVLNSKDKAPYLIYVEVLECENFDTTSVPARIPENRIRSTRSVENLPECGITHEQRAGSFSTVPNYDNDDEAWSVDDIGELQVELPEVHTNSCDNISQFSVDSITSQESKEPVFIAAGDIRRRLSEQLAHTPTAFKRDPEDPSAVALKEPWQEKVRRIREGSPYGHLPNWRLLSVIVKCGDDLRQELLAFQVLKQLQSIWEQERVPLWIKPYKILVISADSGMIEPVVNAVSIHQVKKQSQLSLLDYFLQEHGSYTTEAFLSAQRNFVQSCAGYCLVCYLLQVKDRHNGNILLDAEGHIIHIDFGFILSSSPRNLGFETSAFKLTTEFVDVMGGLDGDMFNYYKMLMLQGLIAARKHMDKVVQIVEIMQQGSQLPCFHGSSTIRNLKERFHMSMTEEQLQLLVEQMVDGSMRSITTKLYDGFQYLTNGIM
Sequence of CSNK1G2 (human) (P78368 whole entry, looked up): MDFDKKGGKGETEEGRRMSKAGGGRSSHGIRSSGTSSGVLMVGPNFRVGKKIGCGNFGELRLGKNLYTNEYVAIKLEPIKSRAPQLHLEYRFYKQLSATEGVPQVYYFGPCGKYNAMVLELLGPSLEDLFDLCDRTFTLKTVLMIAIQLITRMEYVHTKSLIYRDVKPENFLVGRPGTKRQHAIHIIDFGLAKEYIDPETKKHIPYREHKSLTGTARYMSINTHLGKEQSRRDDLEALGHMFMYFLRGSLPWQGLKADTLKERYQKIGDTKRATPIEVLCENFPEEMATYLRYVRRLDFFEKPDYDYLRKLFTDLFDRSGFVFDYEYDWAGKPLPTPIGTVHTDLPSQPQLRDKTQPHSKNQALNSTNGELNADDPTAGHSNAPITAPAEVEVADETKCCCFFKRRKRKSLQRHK

Structure (SMILES): Cc1cc(NC(=O)c2cccc(NC(=O)/C=C/CN(C)C)c2)ccc1Nc1nccc(-c2cccnc2)n1
- kinase still bound, per cent of control (MARK4 (human); compound 1.0 µM): 97%
- kinase still bound, per cent of control (FGFR3 (human); compound 1.0 µM): 100%
- kinase still bound, per cent of control ([1]; compound 1.0 µM): 100%
- kinase still bound, per cent of control (CSNK1G2 (human); compound 1.0 µM): 73%
- kinase still bound, per cent of control ([2]; compound 1.0 µM): 79%
- kinase still bound, per cent of control ([3]; compound 1.0 µM): 100%
- kinase still bound, per cent of control (CAMK1G (human); compound 1.0 µM): 100%
- kinase still bound, per cent of control (LCK (human); compound 1.0 µM): 100%
- kinase still bound, per cent of control (TAOK2 (human); compound 1.0 µM): 73%
- kinase still bound, per cent of control (MAP3K6 (human); compound 1.0 µM): 92%
- kinase still bound, per cent of control ([4]; compound 1.0 µM): 100%
- kinase still bound, per cent of control (RET (human); compound 1.0 µM): 100%
- kinase still bound, per cent of control (CDC42BPG (human); compound 1.0 µM): 86%
- kinase still bound, per cent of control (SGK3 (human); compound 1.0 µM): 48%
- kinase still bound, per cent of control (EPHA2 (human); compound 1.0 µM): 100%
- kinase still bound, per cent of control (CDC42BPB (human); compound 1.0 µM): 68%
- kinase still bound, per cent of control (CLK4 (human); compound 1.0 µM): 93%
- kinase still bound, per cent of control (RPS6KA5 KD1 (human); compound 1.0 µM): 100%
- kinase still bound, per cent of control (BMPR1B (human); compound 1.0 µM): 92%
- kinase still bound, per cent of control ([5]; compound 1.0 µM): 75%
- kinase still bound, per cent of control ([6]; compound 1.0 µM): 99%
- kinase still bound, per cent of control (BRSK2 (human); compound 1.0 µM): 99%
- kinase still bound, per cent of control (ADCK3 (human); compound 1.0 µM): 100%
- kinase still bound, per cent of control (MAP2K5 (human); compound 1.0 µM): 67%
- kinase still bound, per cent of control (CDK11B (human); compound 1.0 µM): 100%
- kinase still bound, per cent of control (MARK2 (human); compound 1.0 µM): 77%
- kinase still bound, per cent of control (PRPF4B (human); compound 1.0 µM): 100%
- kinase still bound, per cent of control (RPS6KA4 KD2 (human); compound 1.0 µM): 74%
- kinase still bound, per cent of control ([7]; compound 1.0 µM): 93%
- kinase still bound, per cent of control (MAPKAPK5 (human); compound 1.0 µM): 74%
- kinase still bound, per cent of control (HUNK (human); compound 1.0 µM): 53%
- kinase still bound, per cent of control (MAPK9 (human); compound 1.0 µM): 0%
- kinase still bound, per cent of control (CDKL2 (human); compound 1.0 µM): 82%
- kinase still bound, per cent of control ([8]; compound 1.0 µM): 81%
- kinase still bound, per cent of control (CDK18 (human); compound 1.0 µM): 100%
- kinase still bound, per cent of control (MAK (human); compound 1.0 µM): 100%
- kinase still bound, per cent of control (PI4KB (human); compound 1.0 µM): 82%
- kinase still bound, per cent of control (MAP4K3 (human); compound 1.0 µM): 100%
- kinase still bound, per cent of control (MAP2K4 (human); compound 1.0 µM): 70%
- kinase still bound, per cent of control (PKMYT1 (human); compound 1.0 µM): 69%
- kinase still bound, per cent of control (MAP4K1 (human); compound 1.0 µM): 89%
- kinase still bound, per cent of control (INSR (human); compound 1.0 µM): 14%

Structure (SMILES): Cc1ccc(NC(=O)c2ccc(NC(=O)/C=C/CN(C)C)cc2)cc1Nc1nccc(-c2cccnc2)n1
- kinase still bound, per cent of control (MARK4 (human); compound 10.0 µM): 77%
- kinase still bound, per cent of control (FGFR3 (human); compound 10.0 µM): 100%
- kinase still bound, per cent of control ([1]; compound 10.0 µM): 64%
- kinase still bound, per cent of control (CSNK1G2 (human); compound 10.0 µM): 83%
- kinase still bound, per cent of control ([2]; compound 10.0 µM): 54%
- kinase still bound, per cent of control ([3]; compound 10.0 µM): 92%
- kinase still bound, per cent of control (CAMK1G (human); compound 10.0 µM): 79%
- kinase still bound, per cent of control (LCK (human); compound 10.0 µM): 54%
- kinase still bound, per cent of control (TAOK2 (human); compound 10.0 µM): 61%
- kinase still bound, per cent of control (MAP3K6 (human); compound 10.0 µM): 100%
- kinase still bound, per cent of control ([4]; compound 10.0 µM): 100%
- kinase still bound, per cent of control (RET (human); compound 10.0 µM): 99%
- kinase still bound, per cent of control (CDC42BPG (human); compound 10.0 µM): 86%
- kinase still bound, per cent of control (SGK3 (human); compound 10.0 µM): 99%
- kinase still bound, per cent of control (EPHA2 (human); compound 10.0 µM): 90%
- kinase still bound, per cent of control (CDC42BPB (human); compound 10.0 µM): 78%
- kinase still bound, per cent of control (CLK4 (human); compound 10.0 µM): 6.2%
- kinase still bound, per cent of control (RPS6KA5 KD1 (human); compound 10.0 µM): 90%
- kinase still bound, per cent of control (BMPR1B (human); compound 10.0 µM): 79%
- kinase still bound, per cent of control ([5]; compound 10.0 µM): 84%
- kinase still bound, per cent of control ([6]; compound 10.0 µM): 100%
- kinase still bound, per cent of control (BRSK2 (human); compound 10.0 µM): 88%
- kinase still bound, per cent of control (ADCK3 (human); compound 10.0 µM): 76%
- kinase still bound, per cent of control (MAP2K5 (human); compound 10.0 µM): 66%
- kinase still bound, per cent of control (CDK11B (human); compound 10.0 µM): 100%
- kinase still bound, per cent of control (MARK2 (human); compound 10.0 µM): 78%
- kinase still bound, per cent of control (PRPF4B (human); compound 10.0 µM): 100%
- kinase still bound, per cent of control (RPS6KA4 KD2 (human); compound 10.0 µM): 64%
- kinase still bound, per cent of control ([7]; compound 10.0 µM): 92%
- kinase still bound, per cent of control (MAPKAPK5 (human); compound 10.0 µM): 74%
- kinase still bound, per cent of control (HUNK (human); compound 10.0 µM): 25%
- Kd (MAPK9 (human)): 160 nM
- kinase still bound, per cent of control (MAPK9 (human); compound 10.0 µM): 1.1%
- kinase still bound, per cent of control (CDKL2 (human); compound 10.0 µM): 100%
- kinase still bound, per cent of control ([8]; compound 10.0 µM): 56%
- kinase still bound, per cent of control (CDK18 (human); compound 10.0 µM): 85%
- kinase still bound, per cent of control (MAK (human); compound 10.0 µM): 100%
- kinase still bound, per cent of control (PI4KB (human); compound 10.0 µM): 40%
- kinase still bound, per cent of control (MAP4K3 (human); compound 10.0 µM): 78%
- kinase still bound, per cent of control (MAP2K4 (human); compound 10.0 µM): 15%
- kinase still bound, per cent of control (PKMYT1 (human); compound 10.0 µM): 79%
- kinase still bound, per cent of control (MAP4K1 (human); compound 10.0 µM): 90%
- kinase still bound, per cent of control (INSR (human); compound 10.0 µM): 93%
